Structures are written as SMILES.

The target of one experiment is T1, PKCε (Homo sapiens, UniProt Q02156).
T1 sequence (Q02156 1-737): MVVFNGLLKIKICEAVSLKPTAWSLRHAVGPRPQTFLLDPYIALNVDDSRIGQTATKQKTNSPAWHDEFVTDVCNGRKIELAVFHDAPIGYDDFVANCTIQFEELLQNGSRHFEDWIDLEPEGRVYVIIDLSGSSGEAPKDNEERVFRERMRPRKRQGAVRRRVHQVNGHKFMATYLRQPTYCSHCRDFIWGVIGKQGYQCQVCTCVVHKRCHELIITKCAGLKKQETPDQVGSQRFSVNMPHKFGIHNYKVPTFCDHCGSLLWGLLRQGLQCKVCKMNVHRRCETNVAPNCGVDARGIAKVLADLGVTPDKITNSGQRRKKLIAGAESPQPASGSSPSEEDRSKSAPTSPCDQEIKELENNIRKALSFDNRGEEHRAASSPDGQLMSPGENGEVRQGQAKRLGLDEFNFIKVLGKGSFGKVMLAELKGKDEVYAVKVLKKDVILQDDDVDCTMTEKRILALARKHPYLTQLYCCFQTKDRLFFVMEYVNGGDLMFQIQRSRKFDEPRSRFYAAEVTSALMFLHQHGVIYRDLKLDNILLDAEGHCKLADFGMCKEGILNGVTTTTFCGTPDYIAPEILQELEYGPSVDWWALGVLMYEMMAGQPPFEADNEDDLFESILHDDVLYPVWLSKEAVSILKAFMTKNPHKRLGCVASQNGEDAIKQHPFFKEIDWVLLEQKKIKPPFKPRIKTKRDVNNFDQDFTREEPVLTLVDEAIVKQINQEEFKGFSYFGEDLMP
Also on record: key: +—activation; ++—strong activation. The conditions noted are these: nPKCs, gene PRKCE; cited from earlier work.

Experiment [1] concerns patient-derived S24 glioblastoma model. Kind of experiment: Example 4: orthotopic S24 glioblastoma in mouse brain, TPPB and radiotherapy, in vivo MPLSM imaging. The arrangement: species or system NMRI nude mice. The conditions noted are these: for tumour burden / tumour connectivity: TPPB 3 doses i.p. days 13, 14, 15 at 200 μg/kg. The text has this:
8-10 weeks old male NMRI nude mice were used for all studies with human primary brain tumour cells. Cranial window implantation in mice was done in a modification of what has been previously described (see References), including a custom-made titanium ring for painless head fixation during imaging. 2-3 weeks after cranial window implantation, 30,000 tumour cells of the patient-derived S24 glioblastoma model were stereotactically injected into the mouse brain at a depth of 500 μm. Tumours were injected on day minus 35, i.e., 35 days before treatment start. Treatment was started on day 0.
Control animals (top row of FIG. 3) were untreated. TPPB continuous treatment (middle row) was administered intraperitoneally once per day on days 0 to 28 at variable daily doses ranging from 10 to 700 μg/kg. TPPB 3 doses (bottom row of FIG. 3) were administered intraperitoneally once per day on days 13, 14 and 15 at 200 μg/kg.
Tumours were irradiated with 7 Gy on three consecutive days (days 14, 15, 16, total dose 21 Gy) in regions matching in tumour cell density using a 6 MV linear accelerator with a 6 mm collimator (adjusted to the window size) at a dose rate of 3 Gy min^−1 (Faxitron MultiRad225). The used radiation schedule is in the range of the commonly prescribed 60 Gy in 2 Gy. fractions for malignant glioma patients, assuming an α/β of ˜10 in the linear quadratic model and taking into account the radiation time of 3 days.
MPLSM imaging was done with a Zeiss 7MP microscope (Zeiss) equipped with a Coherent Chameleon Ultrall laser (Coherent). MPLSM images were acquired by the ZEISS ZEN Software.
White to light gray areas of images in FIG. 3 depict S24 glioblastoma cells growing in the mouse brain. Black or dark gray areas depict vessels or background.

On to `CC(C)[C@H]1C(=O)N[C@H](CO)Cc2cc(NC(=O)/C=C/C=C/c3ccc(C(F)(F)F)cc3)ccc2N1C` [TPPB, (2E,4E)-N-[(2S,5S)-1,2,3,4,5,6-Hexahydro-5-(hydroxymethyl)-1-methyl-2-(1-methylethyl)-3-oxo-1,4-benzodiazocin-8-yl]-5-[4-(trifluoromethyl)phenyl]-2,4-pentadienamide], for which, on PKCε, the “activation of PKCε” value was “+”. For the same compound, the tumour burden entry in experiment [1] (RTx 7 Gy days 14, 15, 16, day 28) is on record as “marked tumour regression”; in experiment [1] (RTx, days 35 and 42) it was “complete remission from the tumour burden”. The tumour connectivity result in experiment [1] (RTx, day 28) is “markedly reduced”; in experiment [1] (RTx, days 35 and 42) it was “completely disconnected”. Besides, the “tumour burden and connectivity versus control” value in experiment [1] (TPPB continuous i.p. once per day days 0 to 28, 10 to 700 μg/kg, RTx 7 Gy days 14, 15, 16, days 0 to 35) was “no effect against control”.
